Data as given in patent publication EP0307077A1, “Tetrahydrocarbazoles for the improvement of cyclosporin therapy” (MERCK FROSST CANADA INC., priority 1987, dated 1989).

Columns and labels:
[1] = tested on: female spontaneously hypertensive (SHR) rats; assay: Cyclosporine A-induced nephrotoxicity, 14 days dosing, serum BUN (Example 63); type: in vivo
Description: All experiments were carried out using female spontaneously hypertensive (SHR) rats, weight range 160-200 gm, obtained from Taconic Farms. […] Three thromboxane antagonists have been studied. […] Thromboxane antagonists have been administered as the sodium salt dissolved in saline, the sodium salt dissolved in 0.1% NaHCO3 or the free acid suspended in 1% Methocel.

[2] = tested on: female spontaneously hypertensive (SHR) rats; assay: Cyclosporine A-induced nephrotoxicity, pilot study, 2 weeks dosing, serum BUN and creatinine (Example 64); type: in vivo; conditions: for Serum BUN / Serum Creatinine: 2 weeks, means ± S.E.M. (n = 8)
[3] = tested on: female spontaneously hypertensive (SHR) rats; assay: Cyclosporine A-induced nephrotoxicity, 5 week study, serum BUN, serum creatinine, creatinine clearance (Example 64); conditions: for Mean Serum BUN Values: Compound 63 (10 mg/kg/day) and Cyclosporine A; for Mean Serum Creatinine Levels: Compound 63 (10 mg/kg/day) and Cyclosporine
Description: Experiments were carried out using groups of 6 female spontaneously hypertensive (SHR) rats, weight range 166-194 gm, obtained form Taconic Farms. […] At weekly intervals form 2 weeks onwards, animals were placed in individual metabolism cages and 24 hr urin samples collected, the volume measured and the creatinine levels determined (Lakeshore Diagnostic Laboratories). Creatinine clearance per rat was calculated from the formula: [formula] where Ucr = concentration of creatine in urine • Per = concentration of creatinine in plasma • V = volume of urine flow in ml/min
After removal from the metabolism cage, a blood sample was taken from each rat for determination of serum BUN and creatinine (Lakeshore Diagnostic Laboratories). In a preliminary study, groups of 8 rats were dosed as above for 2 weeks only and serum samples removed for determination of BUN and creatinine as above.

rats = conditions: cyclosporine A nephrotoxicity model, Penico et al. 1986; cited from earlier work
[4] = Cyclosporine A and Compound 63 3 mg/kg/day
[5] = Cyclosporine A and Compound 63 10 mg/kg/day

With `O=C(O)CC1CCCc2c1n(Cc1ccc(Cl)cc1)c1ccc(F)cc21` (racemic) [Compound 1, 9-p-chlorobenzyl-6-fluoro-1,2,3,4-tetrahydracarbazol-1-yl-acetic acid] the “inhibition of the increase in serum BUN” value ([1]; Table 1 (Experiment 1), 3 mg/kg/day in saline with cyclosporine A) was “significant inhibition”.
With `CS(=O)(=O)c1ccc(Cn2c3c(c4cc(F)cc(F)c42)CCCC3CC(=O)O)cc1` (single isomer, unassigned) [Compound 63] the “reduction of the increase in serum BUN” value ([2]; 3 or 10 mg/kg/day with cyclosporine A, pilot study) was “significantly reduced the increase in serum BUN to control levels”, the “Serum BUN” value [2, 4] was 20.8 ± 1.0 mg/dL and the “Serum Creatinine” value [2, 4] was 0.64 ± 0.02 mg/dL. The “Serum BUN” value [2, 5] was 22.2 ± 0.7 mg/dL, the “Serum Creatinine” value [2, 5] was 0.65 ± 0.04 mg/dL and the “reduction of the increase in serum creatinine” value ([2]; higher dose (10 mg/kg/day) with cyclosporine A, pilot study, p = 0.07) was “failed to reach statistical significance”. The “reduction of the increase in serum creatinine” value ([2]; lower dose (3 mg/kg/day) with cyclosporine A, pilot study) was “significantly reduced the increase in serum creatinine”, the “Mean Serum BUN Values” ([3]; week 2) was 26.4 ± 0.9 mg/dL and the “Mean Serum BUN Values” ([3]; week 3) was 22.3 ± 1.7 mg/dL. For the same compound, the “Mean Serum BUN Values” ([3]; week 4) was 24.0 ± 1.4 mg/dL, the “Mean Serum BUN Values” ([3]; week 5) was 21.0 ± 1.1 mg/dL and the Mean Serum Creatinine Levels ([3]; week 2) was 0.51 ± 0.03 mg/dL. It also gave a Mean Serum Creatinine Levels ([3]; week 3) of 0.44 ± 0.01 mg/dL, a Mean Serum Creatinine Levels ([3]; week 4) of 0.54 ± 0.02 mg/dL and a Mean Serum Creatinine Levels ([3]; week 5) of 0.42 ± 0.01 mg/dL. For the same compound, the “prevention of cyclosporine A-induced changes (serum BUN, creatinine clearance)” value ([3]; cotreatment with Compound 63 (10 mg/kg/day), 5 week study) was “prevented”, the “cyclosporine A-induced nephrotoxicity” value ([3]; overall conclusion of Example 64) was “inhibits” and the “creatinine clearance, Compound 63 and cyclosporine A compared to cyclosporine A alone” value ([3]; week 3) was “significantly different”. The “creatinine clearance, Compound 63 and cyclosporine A compared to cyclosporine A alone” value ([3]; week 5, p = 0.07) was “just failed to reach statistical significance” and the “serum BUN, Compound 63 and cyclosporine A compared to cyclosporine A alone” value ([3]; weeks 3 and 5) was “significantly different”.
For `O=C(O)CC1CCCc2c1n(Cc1ccc(Cl)cc1)c1c(F)cc(F)cc21` (single isomer, unassigned; (-)) [Compound 37, (-)-9 p-Chlorobenzyl-6,8-difluoro-1,2,3,4-tetrahydrocarbazol-1-yl-acetic acid], the “inhibition of the rise in serum BUN” value ([1]; both doses (3 and 10 mg/kg/day), suspension of the free acid, with cyclosporine A) was “significant inhibition”.
In the case of `CS(=O)(=O)c1ccc(Cn2c3c(c4cc(F)cc(F)c42)CCCC3CC(=O)O)cc1` (single isomer, unassigned; (-)) [Compound 50, (-)9-p-Methylsulfonylbenzyl-6,8-difluoro-1,2,3,4-tetrahydrocarbazol-1-yl acetic acid], the “effects on cyclosporine A-induced rises in serum BUN” value ([1]; both 3 and 10 mg/kg/day, suspension of the free acid (Table 4)) is reported as “effective”.
For `Cc1c(Cn2ccnc2)c2ccccc2n1CCC(=O)O` [Uk-38,485], the glomerular filtration rate (rats) is listed as “increased” and the “urinary TxB2” value (rats) is listed as “reduced”.
